From publication PMC8910697, “Development of VPC-70619, a Small-Molecule N-Myc Inhibitor as a Potential Therapy for Neuroendocrine Prostate Cancer” (International Journal of Molecular Sciences, 2022)
“Also recorded” adds a separate entry of the source. Like-named read-outs stand apart in the source and are kept apart here.

Tests used:
[1] = system: N-Myc-Max transcription activity (LNCaP-NMYC cells); experiment: Myc transcription assay (Cignal Myc reporter, luciferase) in LNCaP-NMYC cells; format: cell-based
[2] = system: N-Myc-Max transcription activity (LNCaP-NMYC cells); experiment: as above; format: cell-based; conditions: for IC50: Homo sapiens, LNCaP, Table 1, transcriptional assay in LNCaP cells overexpressing N-Myc, read-out: IC50; for transcription inhibition activity (in words): LNCaP-NMYC, screened at 10 µM and 5 µM
Method in brief: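 LNCaP-NMYC cells transfected with Cignal Myc luciferase reporter were treated 24 h with compounds at 5 µM or 10 µM. Read-out: inhibition of N-Myc-Max-driven reporter luminescence.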

[3] = system: N-Myc-Max binding to DNA E-box; experiment: Biolayer interferometry (BLI), N-Myc-Max binding to biotinylated E-box DNA; format: biochemical; conditions: BLI, 0, 50, 100, 200 µM
From the text: (§1) To confirm that 70619 could disrupt the binding of N-Myc-Max DBD to DNA, we performed a bio-layer interferometry (BLI) assay where we immobilized biotinylated E-box sequence on streptavidin sensors, and we evaluated recombinant N-Myc-Max binding to the DNA in the presence of increasing concentrations of VPC-70619. […] We observed a similar number of interactions when comparing the ratio of signal per nuclei in the presence or absence of the compound.
The bHLHLZ domain of N-Myc (amino acids 309–394) and Max (amino acids 12–93) protein sequences were cloned into pETDuet with an N-terminal 6×His. pETDuet-His-NMyc-Max was transformed and expressed in E. coli BL21 and induced with 0.5 mM isopropyl-β-D-thiogalactopyranoside (IPTG) at 16 °C overnight. The cultures were lysed by sonication and combined for purification by immobilized metal ion chromatography (IMAC) with nickel-nitrilotriacetic acid (Ni-NTA) resin. The bound proteins were eluted from the column with 20 mM Tris, pH = 8, 500 mM NaCl, 5% glycerol, 300 mM imidazole, 5 mM βMe, and 0.1 mM PMSF. Size exclusion chromatography with Superdex 75 was used to increase the purity of the N-Myc-Max protein sample. The purified protein complex was used in subsequent BLI and MST experiments.
Biotinylated-duplex DNA (Forward: 5′ Biotin-[…], Reverse: […]) was bound to the super-streptavidin (SSA) ForteBio Sensor in the assay buffer [20 mM Tris pH = 8, 150 mM NaCl, 5% glycerol, and 0.2 mM TCEP]. The protein solution was mixed with the serially diluted compound (70619) to a final concentration of 0.1 mg/mL of protein and 200 μM, 100 μM, and 50 μM for the compound. Sample containing N-Myc-Max protein alone was used as a control.

[4] = Pharmacokinetics after IP and PO dosing; format: in vivo, male Balb/c mice; conditions: 10 mg/kg; for Tmax: 75:25 PG/PEG 400 formulation; for Cmax: 70551 in 75:25 PG/PEG 400, 70619 in 20:80 Kolliphor EL
Protocol: In order to characterize VPC-70619 as a drug candidate against N-myc, its pharmacokinetic (PK) characteristics were evaluated in Balb/c mice following intraperitoneal (IP) and peroral (PO) administrations. As presented in Figure 5, we determined the PK properties of VPC-70619 and compared it to the parental molecule, VPC-70551. […] The clearance of 70551 for PO delivery was extremely slow, and we could not determine the T1/2 in the experimental conditions used for this assay. […] Therefore, VPC-70619 was deemed to have appropriate efficacy in vivo, and a better pharmacokinetic profile due to higher bioavailability for both oral and intraperitoneal administration.
Bienta Enamine Biology Services (Kyiv, Ukraine) conducted PK studies according to the Enamine PK study protocols and Institutional Animal Care and Use Guidelines. The PK studies were reviewed and approved by the Bienta Animal Care and Use Committee (BACUC) under the project identification codes PK-VPC-112618 (approved 17 December 2018) and PK-VPC-101119 (approved 21 October 2019), for VPC-70551 and […], respectively. Evaluation of 70619 and 70551 was conducted in male Balb/c mice through intraperitoneal (IP) and peroral (PO) administration. Measurements were taken at six time points: 5, 15, 60, 120, 240, and 360 min for IP; 15, 30, 60, 120, 240, and 480 min for PO. Four mice were included in each treatment group for each time point; one mouse each for IP and PO was included as a control. Initial target administration for both IP and PO was 10 mg/kg dose level, 2 mg/mL dose concentration, and 5 mL/kg dose volume. Concentration of the compounds was evaluated in the plasma samples using an LC-MS/MS system.

[5] = Microsomal stability assay; format: in vitro ADME, Mouse; conditions: mouse liver microsomes, 1 µM compound
Protocol: A microsomal stability assay was performed using the Corning Gentest NADPH Regenerating System (Corning, #451220/41200) (Corning, NY, USA). Mouse liver microsomes (MLM) (Xenotech, M1000) (Kansas City, KS, USA) and compounds were diluted to a final concentration of 0.15 mg/mL and 1 μM respectively. These were prepared into a 500 μL solution with 100 mM potassium phosphate buffer (pH = 7.4). Imipramine was used as a control. NADPH solutions A and B were mixed in a 5:1 ratio, and 24 μL of the NADPH was added to each of the MLM/compound samples at 30 s intervals. At time points 10, 20, and 45 min, 100 μL of reaction was added to the stopping solution. Samples were centrifuged at 18,000× g and incubated at 4 °C for 10 min. Samples were then loaded onto a LC-MS 96-well plate for analysis.

[6] = target: T1, N-Myc-Max heterodimer (Homo sapiens, UniProt P04198+P61244); experiment: Proximity ligation assay (PLA) in LNCaP-NMYC cells; format: cell-based; conditions: 10 µM, 72 h
T1 construct: expressed in transfected cells; host or cells: LNCaP-NMYC cells (gift from David Rickman)
T1 sequence (P04198 whole entry): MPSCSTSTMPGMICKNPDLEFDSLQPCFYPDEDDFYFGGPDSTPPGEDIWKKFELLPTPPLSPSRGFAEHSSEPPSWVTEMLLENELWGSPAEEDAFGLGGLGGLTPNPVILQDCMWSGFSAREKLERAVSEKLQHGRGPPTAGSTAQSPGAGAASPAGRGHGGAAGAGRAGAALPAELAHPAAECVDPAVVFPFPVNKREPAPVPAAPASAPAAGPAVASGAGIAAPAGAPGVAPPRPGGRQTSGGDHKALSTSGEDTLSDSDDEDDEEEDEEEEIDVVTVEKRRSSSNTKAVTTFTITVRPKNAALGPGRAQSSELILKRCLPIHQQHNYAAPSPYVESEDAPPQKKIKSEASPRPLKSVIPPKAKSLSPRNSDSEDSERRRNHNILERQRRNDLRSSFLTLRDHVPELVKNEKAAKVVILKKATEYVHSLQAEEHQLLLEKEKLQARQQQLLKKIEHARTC
T1 sequence (P61244 whole entry): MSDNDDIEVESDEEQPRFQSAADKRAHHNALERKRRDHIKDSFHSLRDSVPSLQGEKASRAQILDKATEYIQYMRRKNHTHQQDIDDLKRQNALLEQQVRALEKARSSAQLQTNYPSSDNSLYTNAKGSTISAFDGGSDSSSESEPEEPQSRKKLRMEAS
Protocol: as §1
LNCaP-NMYC cells were seeded on coverslips at a density of 10^5 cells per well of a 6-well plate. After incubation for 24 h the cells were treated with 10 μM of either 10074-G5 or 70619 for 72 h. The coverslips were fixed with methanol:acetone (3:1) and incubated with primary antibodies n-Myc Antibody (NMYC-1) (Novus Biologicals NB200-109) (Littleton, CO, USA) and MAX Antibody (C-17) (Santa Cruz sc-197) (Dallas, TX, USA) overnight at 4 °C. PLA was conducted using the Duolink In Situ Detection Reagents Red kit (Sigma DUO92008) according to the manufacturer’s protocol. The coverslips were then mounted on slides with VECTASHIELD mounting media with DAPI, and images were taken on ZEISS 780 confocal microscope at 40× magnification.

[7] = system: HO15.19 cells; experiment: Cell viability counter-screen (CellTiter-Glo), Myc-negative HO15.19; format: cell-based; conditions: for inhibition at 10 µM: Rattus norvegicus, HO15.19, 10 µM, Myc-negative specificity control
Protocol: (§2) The 54 compounds were tested at 10 µM for their inhibition of the IMR32 human neuroblastoma cell line, in which the MYCN gene is amplified and actively expressed (Table 3). HO15.19 cell line (Myc-negative) was used in parallel as a compound specificity control.
(§3) Viability of N-Myc positive (IMR32and NCI-H660) and negative (HO15.19) cells were determined using the CellTiter-Glo Luminescent Cell Viability Assay (Promega cat. G7570) (Madison, WI, USA). Cells were seeded into a 96-well white plate with a clear bottom: 10,000 cells per well for the IMR32 cells cultured in EMEM supplemented with 10% FBS, 2000 HO15.19 cells per well in Eagle’s minimum essential medium (EMEM) supplemented with 10% FBS, and 2000 cells per well for the NCI-H660 neuroendocrine cells cultured in RPMI supplemented 5% FBS, 1% Insulin-Transferrin-Selenium (Thermo Fisher, 41400-045), 10nM b-estradiol (Sigma, E8875), 10nM hydrocortisone (Sigma H0888) and 1% matrigel. Following 24 h incubation, the cells were treated with serial dilutions of the derivatives along with the respective parental compound starting at 25 μM for 72 h. Cell Titer Glo was added to each well at a ratio of 1:1 and incubated on a shaker at RT for 2 min. Luminescence and IC50 was measured with the TECAN InfiniteM200 plate reader (Männedorf, Switzerland).

[8] = system: IMR32 cells; experiment: Cell viability (CellTiter-Glo), IMR32; format: cell-based; conditions: Homo sapiens, IMR-32
Protocol: as §2, §3

Structure (SMILES) | inhibition at 25 µM [1] | IC50 [2] | transcription inhibition activity (in words) [2] | other results
O=C(NNc1ccc(C(F)(F)F)cc1[N+](=O)[O-])c1cnccn1 [compound 70127] | 106% | 1 µM | strong Myc inhibitory activity | disruption of DNA binding to (N-)Myc-Max (in words) [3]: weakly disrupts DNA binding
N#Cc1ccc(NNC(=O)c2ccc(C(F)(F)F)cc2)c(C(F)(F)F)c1 [compound 70551] | 98% | 4 µM |  | half-life ([4]; male, Balb/c, mouse, plasma, ip, read-out: plasma half-life (T1/2) IP): 5.53 h; Tmax ([4]; male, Balb/c, mouse, plasma, IP, read-out: Tmax IP (converted)): 1 h; Cmax ([4]; male, Balb/c, mouse, plasma, IP, read-out: Cmax IP): 6220 ng/mL; Tmax ([4]; male, Balb/c, mouse, plasma, PO, read-out: Tmax PO (converted)): 8 h; Cmax ([4]; male, Balb/c, mouse, plasma, PO, read-out: Cmax PO): 2600 ng/mL; adverse effects / signs of toxicity in PK animals ([4]; single dose IP or PO): No obvious adverse effects; microsomal half-life (T1/2) ([5]; listed as VPC-70551): 2.33 h; half-life at 1 μM ([5]; mouse, pH 7.4, mouse liver microsomes, read-out: microsomal half-life (T1/2)): 2.35 h
C[C@H](CCc1ccccc1)NC(=O)[C@H]1CCCN(C(=O)CCc2c[nH]c3ccccc23)C1 [compound 70314] | 93% | 15 µM |  | 
Cc1cccc(-c2cc(C(=O)Nc3ccc(S(=O)(=O)N4CCCCC4)cc3)n[nH]2)c1O [compound 70390] | 97% | 9 µM |  | 
O=C(CCN1C(=O)/C(=C\c2ccccc2)SC1=S)NCCc1c[nH]c2ccccc12 [compound 70388] | 77% | 20 µM |  | 
Fc1ccccc1CNC(=S)Nc1cccc(C(F)(F)F)c1 [compound 70465] | 92% | 10 µM |  | 
O=C(CCc1c[nH]c2ccccc12)Nc1nc2ccccc2[nH]1 [compound 70223] | 103% | 10 µM |  | 
O=[N+]([O-])c1ccc(Nc2ccccc2-c2ccccc2)c2nonc12 [10074-G5, reference compound] |  |  |  | microsomal half-life (T1/2) [5]: 0.05 h; effect on N-Myc-Max heterodimer interactions (in words) [6]: significant decrease in the number of interactions; also recorded: the number of interactions is reduced
O=C(Nc1cccc(C(F)(F)F)c1)Nc1cccc(C(F)(F)F)c1 [compound 70511] | 102% | 2 µM | promising inhibitory activity | cytotoxicity in Myc-negative HO15.19 (in words) ([7]; counter-screen): highly cytotoxic profile
CC[C@@H]1Oc2cc(S(=O)(=O)N(C)CC(=O)N(C)Cc3ccccc3)c(C)cc2NC1=O [compound 70381] | 74% | 20 µM |  | 
O=C(NCc1cnn(Cc2ccccc2)c1)[C@@H]1COc2ccccc2O1 [compound 70215] | 92% | 20 µM |  | 
FC(F)(F)c1cc(Br)cc(NC(=S)NCc2cccs2)c1 [compound 70495] | 100% | 5 µM |  | 
N#Cc1ccc(NNC(=O)c2cc(Cl)cc(C(F)(F)F)c2)c(C(F)(F)F)c1 [compound 70722] |  |  | very strong transcription inhibition | inhibition at 10 µM [7]: 79.3%; inhibition at 10 µM [8]: 94.7%
CC(C)(c1ccc(C(=O)NNc2ccc(C#N)cc2C(F)(F)F)cc1)C(F)(F)F [compound 70733] |  |  | active | inhibition at 10 µM [7]: 57.8%; inhibition at 10 µM [8]: 57.4%
N#Cc1ccc(NNC(=O)c2cc(F)c(Br)c(Cl)c2)c(C(F)(F)F)c1 [compound 70775] |  |  | strong increase in inhibition activity | inhibition at 10 µM [7]: 65.1%; inhibition at 10 µM [8]: 62.4%
Cc1cc(Cl)cc(C(=O)NNc2ccc(C#N)cc2C(F)(F)F)c1 [compound 70675] |  |  | better inhibition activity | inhibition at 10 µM [7]: 65.9%; inhibition at 10 µM [8]: 65.4%
